Data on 15 compounds can be found in patent US5523303A, “Trisubstituted cycloalkane derivatives and process for the preparation thereof” (Egis Gyogyszergyar Rt., priority 1993, dated 1996).

Like-named read-outs stand apart in the source and are kept apart here.

Series [1] in a line: Acute toxicity on mice (method of Lichtfield and Wilcoxon), LD50. As to conditions: mouse, in vivo, po, 14 days observation. Here is the method: The test was carried out according to the method of Lichtfield and Wilcoxon [Lichtfield, J. T. and Wilcoxon, F. W.: J. Pharmacol. Exp. Ther., 96, 99 (1949)] by using white mice belonging to the CFLP strain and weighing 10 to 22 g, 10 animals per dose. The test compounds were administered orally in a volume of 20 cm3 /kg.

Another series deals with T1, H^+ K^+ -ATP-ase (Sus scrofa, UniProt P19156).
T1 construct: on partially purified pig's microsome specimen; from tissue; host or cells: pig stomach, partially purified microsomes
Put plainly: H+/K+-ATP-ase inhibition on partially purified pig's microsome specimen (method of Rabon and Sachs). Type of series: biochemical. How it is done: 1. H^+ /K^+ -ATP-ase inhibition on pig'stomach. The test was carried out according to the method of Rabon and Sachs [E. C. Rabon, W. B. I. and G. Sachs: Preparation of gastric H^+ /K^+ -ATP-ase. Methods in Enzymology, 157, 649-651 (1988)]. The activity of the prepared enzyme was measured both in the presence and in the absence of K^+ ions. The difference in the liberation of phosphorus representing the activity of the enzyme was measured.

Another series concerns gastric-acid-secretion. Kind of series: Gastric-acid-secretion inhibition on rats (method of Shay et al.). It is filed as in vivo. The note with it: Rattus norvegicus, po, read-out: Acid-secretion inhibition, ED50. How it is done: 2. […] The liberated gastric acid content was determined by titration 4 hours after the ligature of the duodenum.
The subject of series [2] is erosion of the stomach wall. Kind of series: Cytoprotective effect: inhibition of ethanol-induced erosion of the stomach wall on rats (method of Robert). It is filed as in vivo. As to conditions: for ED50: Rattus norvegicus, po; for Ratio of acid-secretion inhibition and erosion inhibition: ratio of the ED50 values. Here is the method: 3. The cytoprotective effect was determined on rats according to the method of Robert [Robert, A.: Cytoprotection by prostaglandins. […] Rats weighing 200 to 250 g were used as test animals. 1 cm^3 of abs. ethanol was introduced to the stomach to produce an erosion of the stomach wall. The length and frequency of the lesions (erosion index and frequency) were measured and the percentage inhibition of lesion formation compared with vehicle-treated animals was calculated.

Series [3] can be described thus: Acute toxicity on mice (method of Lichtfield and Wilcoxon), LD50. As to conditions: mouse, in vivo, ip, 14 days observation.
The test system of a further series is beta-adrenergic. As to conditions: prior art; cited from earlier work.
The next series concerns lipid level. As to conditions: prior art; cited from earlier work.
The conditions of series [4]: prior art; cited from earlier work.
[5] abbreviates: rats, p.o., 4 hours after ligature.

T1 sequence (P19156 2-1034 limits assumed): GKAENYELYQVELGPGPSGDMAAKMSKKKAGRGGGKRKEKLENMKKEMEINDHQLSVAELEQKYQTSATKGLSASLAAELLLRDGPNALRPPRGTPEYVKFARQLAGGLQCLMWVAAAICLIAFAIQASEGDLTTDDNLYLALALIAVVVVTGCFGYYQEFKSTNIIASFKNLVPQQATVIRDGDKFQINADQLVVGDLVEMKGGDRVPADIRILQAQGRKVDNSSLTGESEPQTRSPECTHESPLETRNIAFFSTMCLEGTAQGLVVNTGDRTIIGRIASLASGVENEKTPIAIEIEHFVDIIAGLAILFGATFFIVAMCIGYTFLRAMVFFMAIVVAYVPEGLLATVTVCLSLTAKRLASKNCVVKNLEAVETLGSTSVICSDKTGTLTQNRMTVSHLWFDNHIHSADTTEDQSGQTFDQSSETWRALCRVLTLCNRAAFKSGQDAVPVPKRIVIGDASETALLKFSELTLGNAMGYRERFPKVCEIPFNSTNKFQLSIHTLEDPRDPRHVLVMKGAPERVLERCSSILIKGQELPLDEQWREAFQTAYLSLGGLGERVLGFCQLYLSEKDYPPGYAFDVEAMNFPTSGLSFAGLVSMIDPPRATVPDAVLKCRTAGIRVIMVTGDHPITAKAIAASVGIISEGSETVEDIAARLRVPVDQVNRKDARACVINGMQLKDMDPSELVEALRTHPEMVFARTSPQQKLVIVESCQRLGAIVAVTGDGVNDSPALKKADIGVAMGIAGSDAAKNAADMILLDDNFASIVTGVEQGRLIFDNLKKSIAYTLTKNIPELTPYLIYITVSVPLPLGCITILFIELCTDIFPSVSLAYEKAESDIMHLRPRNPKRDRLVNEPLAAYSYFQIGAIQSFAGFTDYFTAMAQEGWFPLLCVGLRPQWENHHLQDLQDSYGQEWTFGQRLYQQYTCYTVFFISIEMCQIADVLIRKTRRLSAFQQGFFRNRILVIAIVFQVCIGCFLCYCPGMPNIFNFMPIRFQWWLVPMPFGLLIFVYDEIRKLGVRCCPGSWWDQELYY
T1 sequence (P18434 whole entry partner): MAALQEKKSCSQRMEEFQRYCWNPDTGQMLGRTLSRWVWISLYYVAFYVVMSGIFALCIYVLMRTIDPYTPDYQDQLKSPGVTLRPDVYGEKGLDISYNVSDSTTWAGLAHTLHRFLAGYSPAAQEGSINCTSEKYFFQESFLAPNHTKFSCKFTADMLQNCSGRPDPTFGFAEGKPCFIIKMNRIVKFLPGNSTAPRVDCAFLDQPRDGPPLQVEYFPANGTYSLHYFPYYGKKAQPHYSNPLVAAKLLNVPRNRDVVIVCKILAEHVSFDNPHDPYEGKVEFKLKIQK

A word on the LD50: it is the dose expected to kill half of the subjects tested. A higher LD50 goes with a less toxic substance. The IC50 is the concentration that inhibits the measured activity by half. Lower therefore signals higher potency. As usually defined, the ED50 is the dose at which the effect has come halfway, by size or by number of responders. With `CC(CO/N=C1/C(=C/c2ccc(F)cc2)CCCC1C)CN(C)C` (racemic) [Example 9, (R,S)-6-(E)-(4-Fluorophenylmethylene)-2-methyl-1-(E)-[3-(dimethylamino)-2-methylpropoxyimino]-cyclohexane], the figures for the 50% lethal dose (LD50) at 336 h in series [1] and in series [3] were 600 mg/kg and about 300 mg/kg, respectively. In addition, at H^+ K^+ -ATP-ase, the IC50 is over 30 µM. The median effective dose (ED50) was 30 to 120 mg/kg in the series with gastric-acid-secretion (setting [5]) and 1.2 mg/kg in series [2] (abs. ethanol). In series [2] (p.o.), the “Ratio of acid-secretion inhibition and erosion inhibition” value is on record as 25-100.

In the case of `CCCCCC1CCCC(=C\c2ccc(F)cc2)/C1=N/OCCN1CCN(Cc2ccccc2)CC1` (racemic) [Example 31, (R,S)-6-(E)-(4-Fluorophenylmethylene)-2-pentyl-1-(E)-[2-(4-phenylmethyl-1-piperazinyl)-ethoxyimino]-cyclohexane], the LD50 at 336 h in series [1] is over 1000 mg/kg; in series [3] it was over 300 mg/kg. The compound further had an IC50 against H^+ K^+ -ATP-ase of over 30 µM. In addition, the ED50 came out at 200 mg/kg in the series with gastric-acid-secretion (setting [5]) and 3.9 mg/kg in series [2] (abs. ethanol). Moreover, the “Ratio of acid-secretion inhibition and erosion inhibition” value in series [2] (p.o.) is recorded as 50.

Take `CCCCCCC1CCCC(=C\c2ccccc2OC)/C1=N/OCCN(CC)CC` (racemic) [Example 34, (R,S)-6-(E)-(2-Methoxyphenylmethylene)-2-hexyl-1-(E)-[2-(diethylamino)-ethoxyimino]-cyclohexane]: the 50% lethal dose (LD50) at 336 h in series [1] is about 1000 mg/kg; in series [3], 88 mg/kg. Further, half-maximal inhibition against H^+ K^+ -ATP-ase (IC50) required 5 µM. For the same compound, the ED50 in the series on gastric-acid-secretion (setting [5]) is 103 mg/kg; in series [2] (abs. ethanol) it was 1.4 mg/kg. Further, the “Ratio of acid-secretion inhibition and erosion inhibition” value in series [2] (p.o.) was 73.4.

As to `CCCCCCCC1CCCC(=C\c2ccc(F)cc2)/C1=N/OCCN(C)C` (racemic) [Example 35, (R,S)-6-(E)-(4-Fluorophenylmethylene)-2-heptyl-1-(E)-[2-(dimethylamino)-ethoxyimino]-cyclohexane], the LD50 at 336 h in series [1] was over 1000 mg/kg; in series [3], 100 to 300 mg/kg. In addition, the ED50 was under 200 mg/kg with gastric-acid-secretion (setting [5]) and 2.9 mg/kg in series [2] (abs. ethanol). The “Ratio of acid-secretion inhibition and erosion inhibition” value in series [2] (p.o.) is listed as at most 70.

In the case of `CCCC1CCCCC(=C\c2ccc(Cl)cc2)/C1=N/OCCN(CC)CC` (racemic) [Example 40, (R,S)-7-(E)-(4-Chlorophenylmethylene)-2-propyl-1-(E)-[2-(diethylamino)-ethoxyimino]-cycloheptane], the LD50 at 336 h is over 1000 mg/kg in series [1] and 100 to 300 mg/kg in series [3]. This compound also gave an IC50 on H^+ K^+ -ATP-ase of 7 µM. Further, the results for the 50% effective dose (ED50) (in the series on gastric-acid-secretion (setting [5]); in series [2] (abs. ethanol)) were 52.9 mg/kg and 2.6 mg/kg, respectively. In addition, in series [2] (p.o.), the “Ratio of acid-secretion inhibition and erosion inhibition” value is 20.

Take `CCN(CC)CCO/N=C1/C(=C/c2ccc(Cl)c(Cl)c2)CCCC1C` (racemic) [Example 41, (R,S)-6-(E)-(3,4-Dichlorophenylmethylene)-2-methyl-1-(E)-[2-(diethylamino)-ethoxyimino]-cyclohexane]: the 50% lethal dose (LD50) at 336 h is over 1000 mg/kg in series [1] and 100 to 300 mg/kg in series [3]. The same compound gave an IC50 against H^+ K^+ -ATP-ase of 17 µM.

Turning to `CCCC1CCCCC(=C\c2ccc(Cl)cc2)/C1=N/OCC(O)CN1CCCC1` (racemic) [Example 44, (R,S)-2-Propyl-7-(E)-(4-chlorophenylmethylene)-1-(E)-[2-hydroxy-3-(N-pyrrolidinylpropoxyimino)]-cycloheptane], the LD50 at 336 h in series [1] was over 1000 mg/kg; in series [3] it was 100 to 300 mg/kg. The IC50 against H^+ K^+ -ATP-ase was found to be 10 µM. Further, the ED50 in the series on gastric-acid-secretion (setting [5]) is 50 to 200 mg/kg; in series [2] (abs. ethanol), 1.6 mg/kg.

For the compound `CN/C(=N/CCSCc1nc[nH]c1C)NC#N` [Cimetidine, reference compound], the values for the ED50 (in the series on gastric-acid-secretion (4 h); in series [2] (abs. ethanol)) were 59.1 mg/kg and 100 to 200 mg/kg, respectively. Also, in series [2] (p.o.), the “Ratio of acid-secretion inhibition and erosion inhibition” value was 0.3-0.6.

As to `CC(=NOCC(O)CNC(C)(C)C)C1CC1` (stereo not drawn) [Falintolol], in the series on beta-adrenergic, the beta-adrenergic blocking activity result is “exhibit beta-adrenergic blocking activity”.

Consider `CC(C)(C)NCC(O)CON=C1c2ccccc2-c2ccccc21` (stereo not drawn) [IPS-339], for which the beta-adrenergic blocking activity entry in the series with beta-adrenergic is given as “exhibit beta-adrenergic blocking activity”.

With `COc1ccc2[nH]c([S+]([O-])Cc3ncc(C)c(OC)c3C)nc2c1` (stereo not drawn) [Omeprazole, reference compound], the ED50 was 3.9 mg/kg in the series on gastric-acid-secretion (setting [5]) and 4.5 mg/kg in series [2] (abs. ethanol). In addition, the “Ratio of acid-secretion inhibition and erosion inhibition” value in series [2] (p.o.) came out at 0.9.

As for `OC(CON=Cc1ccc(Cl)cc1)CN1CCN(c2ccccc2Cl)CC1` (stereo not drawn) [Peraclopon], in the series with lipid level, the lipid level lowering entry is given as “lipid level lowering agent”.

As for `COc1cccc(C=NOCC(O)CN2CCN(c3ccccc3OC)CC2)c1` (stereo not drawn) [Peradoxime], in series [4], the hypotensive effect entry was “has a hypotensive effect”.

Take `CN1CCN(CC(=O)N2c3ccccc3C(=O)Nc3cccnc32)CC1` [Pirenzepine, reference compound]: the ED50 was found to be 7.9 mg/kg in the series on gastric-acid-secretion (setting [5]) and 18.6 mg/kg in series [2] (abs. ethanol). Also, in series [2] (p.o.), the “Ratio of acid-secretion inhibition and erosion inhibition” value is given as 0.4.

The compound Sucralfate [reference compound] yielded an Ethanol erosion ED50 in series [2] (p.o., abs. ethanol) of 69 mg/kg.
